# Test results published in patent publication US12202818B2, “Compounds and methods for CD73 modulation and indications therefor” (Opna Bio SA, priority 2020, dated 2025).
# Key:
# [1] = target: T1, Human CD73 (amino acid residues 27-549) (Homo sapiens, UniProt P21589); test: CD73 enzymatic assay (luciferase-based indirect assay, CellTiter-Glo); format: biochemical; settings: 0.4 nM CD73, 150 μM AMP, 1 hour at room temperature
# T1 construct: Human CD73 (amino acid residues 27-549); His tag (N); made in house; host or cells: E. coli
# T1 sequence (P21589 27-549): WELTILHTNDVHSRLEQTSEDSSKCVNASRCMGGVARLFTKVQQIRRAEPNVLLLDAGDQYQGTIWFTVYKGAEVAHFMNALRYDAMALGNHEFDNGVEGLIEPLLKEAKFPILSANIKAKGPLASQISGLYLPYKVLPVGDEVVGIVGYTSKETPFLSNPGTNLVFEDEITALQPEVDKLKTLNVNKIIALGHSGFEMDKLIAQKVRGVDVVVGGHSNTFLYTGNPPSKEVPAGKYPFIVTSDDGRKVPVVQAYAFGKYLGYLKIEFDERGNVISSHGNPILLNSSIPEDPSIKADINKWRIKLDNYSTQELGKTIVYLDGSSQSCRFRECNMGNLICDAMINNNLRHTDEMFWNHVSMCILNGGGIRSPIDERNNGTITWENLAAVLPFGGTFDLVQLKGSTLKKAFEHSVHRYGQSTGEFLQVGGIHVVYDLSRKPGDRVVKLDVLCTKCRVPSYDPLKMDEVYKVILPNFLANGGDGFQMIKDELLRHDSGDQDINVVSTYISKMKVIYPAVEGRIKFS
# How it was run: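 N-His human CD73 (27-549) expressed in E. coli, 0.4 nM, incubated with 150 μM AMP and compound in 50 mM HEPES pH 7.4, 0.01% Tween-20, 1 h at RT. Remaining AMP read via CellTiter-Glo luminescence with 1 μM ATP after 30 min; IC50 from nonlinear regression of % inhibition.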
# human CD73 = target: T2, human CD73 (Homo sapiens, UniProt P21589); test: Inhibitor activity against CD73 in cell based assay (CD73 expressing CHO-K1 cells); settings: CHO-K1 cells expressing human CD73, 150 μM AMP, 4 hours of incubation; read-out: CHO-K1 CELL_VARIANT: CD73 IC50
# T2 construct: expressed in transfected cells
# T2 sequence (P21589 27-549): T1 sequence (P21589 27-549)
# How it was run: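 Stable human CD73 CHO-K1 cells, 1×10^4/well, exposed to an 8-point 1:3 compound series (top 10 μM, 0.2% DMSO) plus 150 μM AMP for 4 h. Remaining AMP in the supernatant was read by CellTiter-Glo 2.0 luminescence with 1 μM ATP after 30 min at room temperature. IC50 came from nonlinear regression of % inhibition against cell and media-only controls.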
IC50 [1],IC50 (human CD73),SMILES
0.001 to 10 µM,0.001 to 10 µM,"CCCS(=O)(=O)Nc1ccc(-c2ccnc(O[C@@H]3CCN(c4cn[nH]c(=O)c4Cl)C3)c2)c(F)c1 [P-0204, (R)-N-(4-(2-((1-(5-chloro-6-oxo-1,6-dihydropyridazin-4-yl)pyrrolidin-3-yl)oxy)pyridin-4-yl)-3-fluorophenyl)propane-1-sulfonamide]"
0.001 to 10 µM,0.001 to 10 µM,"CC(C)C(=O)Nc1ccc(-c2ccnc(O[C@@H]3CCN(c4cn[nH]c(=O)c4Cl)C3)c2)c(F)c1 [P-0205, (R)-N-(4-(2-((1-(5-chloro-6-oxo-1,6-dihydropyridazin-4-yl)pyrrolidin-3-yl)oxy)pyridin-4-yl)-3-fluorophenyl)isobutyramide]"
0.001 to 10 µM,0.001 to 10 µM,"O=C(Nc1ccc(-c2ccnc(O[C@@H]3CCN(c4cn[nH]c(=O)c4Cl)C3)c2)c(F)c1)C1CCCC1 [P-0206, (R)-N-(4-(2-((1-(5-chloro-6-oxo-1,6-dihydropyridazin-4-yl)pyrrolidin-3-yl)oxy)pyridin-4-yl)-3-fluorophenyl)cyclopentane-carboxamide]"
0.001 to 10 µM,0.001 to 10 µM,"O=c1[nH]ncc(N2CC[C@@H](Oc3cc(-c4c(F)cc(S(=O)(=O)NC5CC5)cc4F)ccn3)C2)c1Cl [P-0207, (R)-4-(2-((1-(5-chloro-6-oxo-1,6-dihydropyridazin-4-yl)pyrrolidin-3-yl)oxy)pyridin-4-yl)-N-cyclopropyl-3,5-difluorobenzenesulfonamide]"
0.001 to 10 µM,0.001 to 10 µM,"CCCNS(=O)(=O)c1cc(F)c(-c2ccnc(O[C@@H]3CCN(c4cn[nH]c(=O)c4Cl)C3)c2)c(F)c1 [P-0208, (R)-4-(2-((1-(5-chloro-6-oxo-1,6-dihydropyridazin-4-yl)pyrrolidin-3-yl)oxy)pyridin-4-yl)-3,5-difluoro-N-propylbenzenesulfonamide]"
0.001 to 10 µM,0.001 to 10 µM,"Cc1c(-c2ccnc(O[C@@H]3CCN(c4cn[nH]c(=O)c4Cl)C3)c2)cnn1C [P-0209, (R)-4-chloro-5-(3-((4-(1,5-dimethyl-1H-pyrazol-4-yl)pyridin-2-yl)oxy)pyrrolidin-1-yl)pyridazin-3(2H)-one]"
0.001 to 10 µM,0.001 to 10 µM,"Cc1cc(NS(=O)(=O)C2CC2)ccc1-c1ccnc(O[C@@H]2CCN(c3cn[nH]c(=O)c3Cl)C2)c1 [P-0210, (R)-N-(4-(2-((1-(5-chloro-6-oxo-1,6-dihydropyridazin-4-yl)pyrrolidin-3-yl)oxy)pyridin-4-yl)-3-methylphenyl)cyclopropane-sulfonamide]"
0.001 to 10 µM,0.001 to 10 µM,"O=C(Nc1ccc(-c2ccnc(O[C@@H]3CCN(c4cn[nH]c(=O)c4Cl)C3)c2)c(F)c1)NC1CC1 [P-0211, (R)-1-(4-(2-((1-(5-chloro-6-oxo-1,6-dihydropyridazin-4-yl)pyrrolidin-3-yl)oxy)pyridin-4-yl)-3-fluorophenyl)-3-cyclopropylurea]"
0.001 to 10 µM,0.001 to 10 µM,"O=C(Nc1ccc(-c2ccnc(O[C@@H]3CCN(c4cn[nH]c(=O)c4Cl)C3)c2)c(F)c1)C1CCC1 [P-0212, (R)-N-(4-(2-((1-(5-chloro-6-oxo-1,6-dihydropyridazin-4-yl)pyrrolidin-3-yl)oxy)pyridin-4-yl)-3-fluorophenyl)cyclobutane-carboxamide]"
0.001 to 10 µM,0.001 to 10 µM,"CC(=O)Nc1ccc(-c2ccnc(O[C@@H]3CCN(c4cn[nH]c(=O)c4Cl)C3)c2)c(F)c1 [P-0213, (R)-N-(4-(2-((1-(5-chloro-6-oxo-1,6-dihydropyridazin-4-yl)pyrrolidin-3-yl)oxy)pyridin-4-yl)-3-fluorophenyl)acetamide]"
0.001 to 10 µM,0.001 to 10 µM,"O=C(Nc1ccc(-c2ccnc(O[C@@H]3CCN(c4cn[nH]c(=O)c4Cl)C3)c2)c(F)c1)c1ccccc1 [P-0214, (R)-N-(4-(2-((1-(5-chloro-6-oxo-1,6-dihydropyridazin-4-yl)pyrrolidin-3-yl)oxy)pyridin-4-yl)-3-fluorophenyl)benzamide]"
0.001 to 10 µM,10 to 100 µM,"O=c1[nH]ncc(N2CC[C@@H](Oc3cc(-c4ccnc(O[C@@H]5CCN(c6cn[nH]c(=O)c6Cl)C5)c4)ccn3)C2)c1Cl [P-0215, 5,5′-((3R,3′R)-([4,4′-bipyridine]-2,2′-diylbis(oxy))bis(pyrrolidine-3,1-diyl))bis(4-chloropyridazin-3(2H)-one)]"
0.001 to 10 µM,0.001 to 10 µM,"CCCNS(=O)(=O)c1ccc(-c2cc(F)nc(O[C@@H]3CCN(c4cn[nH]c(=O)c4Cl)C3)c2)c(C)c1 [P-0216, (R)-4-(2-((1-(5-chloro-6-oxo-1,6-dihydropyridazin-4-yl)pyrrolidin-3-yl)oxy)-6-fluoropyridin-4-yl)-3-methyl-N-propylbenzenesulfonamide]"
0.001 to 10 µM,0.001 to 10 µM,"Cc1cc(S(=O)(=O)NC2CC2)ccc1-c1cc(F)nc(O[C@@H]2CCN(c3cn[nH]c(=O)c3Cl)C2)c1 [P-0217, (R)-4-(2-((1-(5-chloro-6-oxo-1,6-dihydropyridazin-4-yl)pyrrolidin-3-yl)oxy)-6-fluoropyridin-4-yl)-N-cyclopropyl-3-methylbenzenesulfonamide]"
0.001 to 10 µM,0.001 to 10 µM,"COC(=O)Cc1ccc(-c2ccnc(O[C@@H]3CCN(c4cn[nH]c(=O)c4Cl)C3)c2)c(F)c1 [P-0218, methyl (R)-2-(4-(2-((1-(5-chloro-6-oxo-1,6-dihydropyridazin-4-yl)pyrrolidin-3-yl)oxy)pyridin-4-yl)-3-fluorophenyl)acetate]"
0.001 to 10 µM,10 to 100 µM,"O=C(O)Cc1ccc(-c2ccnc(O[C@@H]3CCN(c4cn[nH]c(=O)c4Cl)C3)c2)c(F)c1 [P-0219, (R)-2-(4-(2-((1-(5-chloro-6-oxo-1,6-dihydropyridazin-4-yl)pyrrolidin-3-yl)oxy)pyridin-4-yl)-3-fluorophenyl)acetic acid]"
0.001 to 10 µM,0.001 to 10 µM,"Nc1ccc(-c2ccnc(O[C@@H]3CCN(c4cn[nH]c(=O)c4Cl)C3)c2)c(F)c1 [P-0220, (R)-5-(3-((4-(4-amino-2-fluorophenyl)pyridin-2-yl)oxy)pyrrolidin-1-yl)-4-chloropyridazin-3(2H)-one]"
0.001 to 10 µM,0.001 to 10 µM,"O=c1[nH]ncc(N2CC[C@@H](Oc3cc(N4CCC(NS(=O)(=O)C5CC5)CC4)ccn3)C2)c1Cl [P-0221, (R)-N-(1-(2-((1-(5-chloro-6-oxo-1,6-dihydropyridazin-4-yl)pyrrolidin-3-yl)oxy)pyridin-4-yl)piperidin-4-yl)cyclopropanesulfonamide]"
0.001 to 10 µM,0.001 to 10 µM,"O=C(NC1CCN(c2ccnc(O[C@@H]3CCN(c4cn[nH]c(=O)c4Cl)C3)c2)CC1)C1CC1 [P-0222, (R)-N-(1-(2-((1-(5-chloro-6-oxo-1,6-dihydropyridazin-4-yl)pyrrolidin-3-yl)oxy)pyridin-4-yl)piperidin-4-yl)cyclopropanecarboxamide]"
0.001 to 10 µM,0.001 to 10 µM,"CCCNS(=O)(=O)c1ccc(-c2ccnc(O[C@@H]3CCN(c4cn[nH]c(=O)c4Cl)C3)c2)cc1 [P-0223, (R)-4-(2-((1-(5-chloro-6-oxo-1,6-dihydropyridazin-4-yl)pyrrolidin-3-yl)oxy)pyridin-4-yl)-N-propylbenzenesulfonamide]"
0.001 to 10 µM,0.001 to 10 µM,"Cc1cc(S(=O)(=O)NC2CC2)cc(F)c1-c1ccnc(O[C@@H]2CCN(c3cn[nH]c(=O)c3Cl)C2)c1 [P-0224, (R)-4-(2-((1-(5-chloro-6-oxo-1,6-dihydropyridazin-4-yl)pyrrolidin-3-yl)oxy)pyridin-4-yl)-N-cyclopropyl-3-fluoro-5-methylbenzenesulfonamide]"
0.001 to 10 µM,0.001 to 10 µM,"CCCNS(=O)(=O)c1cc(C)c(-c2ccnc(O[C@@H]3CCN(c4cn[nH]c(=O)c4Cl)C3)c2)c(F)c1 [P-0225, (R)-4-(2-((1-(5-chloro-6-oxo-1,6-dihydropyridazin-4-yl)pyrrolidin-3-yl)oxy)pyridin-4-yl)-3-fluoro-5-methyl-N-propylbenzenesulfonamide]"
0.001 to 10 µM,0.001 to 10 µM,"CCCNS(=O)(=O)N1CCN(c2ccnc(O[C@@H]3CCN(c4cn[nH]c(=O)c4Cl)C3)c2)CC1 [P-0226, (R)-4-(2-((1-(5-chloro-6-oxo-1,6-dihydropyridazin-4-yl)pyrrolidin-3-yl)oxy)pyridin-4-yl)-N-propylpiperazine-1-sulfonamide]"
0.001 to 10 µM,0.001 to 10 µM,"COc1cc(S(=O)(=O)NC2CC2)ccc1-c1ccnc(O[C@@H]2CCN(c3cn[nH]c(=O)c3Cl)C2)c1 [P-0227, (R)-4-(2-((1-(5-chloro-6-oxo-1,6-dihydropyridazin-4-yl)pyrrolidin-3-yl)oxy)pyridin-4-yl)-N-cyclopropyl-3-methoxybenzenesulfonamide]"
